Assay results reported in ChEMBL document CHEMBL3044635, “Effect of propiconazole and difenoconazole on the control of anthracnose of chilli fruits caused by Colletotrichum capsici” (Crop Prot, 2006).
In brackets after ≈: the same amount, converted by molar mass.

What was measured:
[1] = system: Colletotrichum truncatum; experiment: Fungicidal activity against Colletotrichum capsici assessed as reduction of pectin trans-eliminase production at 1 ug/ml incubated for 10 days measured up to 120 min by Ostwald-Fenske viscometric analysis (reference value: 38.5%); format: functional; parameters: scale not given: the % may be the effect or the level left
[2] = system: Colletotrichum truncatum; experiment: Fungicidal activity against Colletotrichum capsici assessed as reduction of polygalacturonase production at 1 ug/ml incubated for 10 days measured up to 120 min by Ostwald-Fenske viscometric analysis (reference value: 45.3%); format: functional; parameters: scale not given: the % may be the effect or the level left
[3] = system: Colletotrichum truncatum; experiment: Fungicidal activity against Colletotrichum capsici assessed as inhibition of mycelial growth; format: functional; conditions: Colletotrichum truncatum; read-out: ED50 (the source's name)
[4] = system: Colletotrichum truncatum; experiment: Fungicidal activity against Colletotrichum capsici assessed as sporulation at 25 ug/ml incubated 16 hr photoperiod for 20 days by haemocytometer (reference value: 0.081 x 10^6 ml'-1); format: functional
[5] = system: Colletotrichum truncatum; experiment: Fungicidal activity against Colletotrichum capsici assessed as sporulation at 10 ug/ml incubated 16 hr photoperiod for 20 days by haemocytometer (reference value: 0.081 x 10^6 ml'-1); format: functional
[6] = system: Colletotrichum truncatum; experiment: Fungicidal activity against Colletotrichum capsici assessed as sporulation at 5 ug/ml incubated 16 hr photoperiod for 20 days by haemocytometer (reference value: 0.081 x 10^6 ml'-1); format: functional
[7] = system: Colletotrichum truncatum; experiment: Fungicidal activity against Colletotrichum capsici assessed as sporulation at 1 ug/ml incubated 16 hr photoperiod for 20 days by haemocytometer (reference value: 0.081 x 10^6 ml'-1); format: functional
[8] = system: Colletotrichum truncatum; experiment: Fungicidal activity against Colletotrichum capsici assessed as sporulation at 0.1 ug/ml incubated 16 hr photoperiod for 20 days by haemocytometer (reference value: 0.081 x 10^6 ml'-1); format: functional
[9] = system: Colletotrichum truncatum; experiment: Fungicidal activity against Colletotrichum capsici assessed as spore germination at 50 ug/ml after 48 to 96 hr (reference value: 70.2 CFU); format: functional
[10] = system: Colletotrichum truncatum; experiment: Fungicidal activity against Colletotrichum capsici assessed as spore germination at 25 ug/ml after 48 to 96 hr (reference value: 70.2 CFU); format: functional
[11] = system: Colletotrichum truncatum; experiment: Fungicidal activity against Colletotrichum capsici assessed as spore germination at 0.5 ug/ml after 48 to 96 hr (reference value: 70.2 CFU); format: functional
[12] = system: Colletotrichum truncatum; experiment: Fungicidal activity against Colletotrichum capsici assessed as inhibition of spore germination at 0.1 ug/ml after 48 to 96 hr relative to control; format: functional
[13] = system: Colletotrichum truncatum; experiment: Fungicidal activity against Colletotrichum capsici assessed as mycelial biomass at 25 ug/ml incubated 16 hr photoperiod for 20 days (reference value: 675 mg); format: functional
[14] = system: Colletotrichum truncatum; experiment: Fungicidal activity against Colletotrichum capsici assessed as mycelial biomass at 50 ug/ml incubated 16 hr photoperiod for 20 days (reference value: 675 mg); format: functional
[15] = system: Colletotrichum truncatum; experiment: Fungicidal activity against Colletotrichum capsici assessed as mycelial biomass at 10 ug/ml incubated 16 hr photoperiod for 20 days (reference value: 675 mg); format: functional
[16] = system: Colletotrichum truncatum; experiment: Fungicidal activity against Colletotrichum capsici assessed as mycelial biomass at 1 ug/ml incubated 16 hr photoperiod for 20 days (reference value: 675 mg); format: functional
[17] = system: Colletotrichum truncatum; experiment: Fungicidal activity against Colletotrichum capsici assessed as mycelial biomass at 0.1 ug/ml incubated 16 hr photoperiod for 20 days (reference value: 675 mg); format: functional
[18] = system: Colletotrichum truncatum; experiment: Fungicidal activity against Colletotrichum capsici assessed as linear growth at 25 ug/ml incubated 16 hr photoperiod for 20 days (reference value: 90 mm); format: functional
[19] = system: Colletotrichum truncatum; experiment: Fungicidal activity against Colletotrichum capsici assessed as linear growth at 10 ug/ml incubated 16 hr photoperiod for 20 days (reference value: 90 mm); format: functional
[20] = system: Colletotrichum truncatum; experiment: Fungicidal activity against Colletotrichum capsici assessed as linear growth at 1 ug/ml incubated 16 hr photoperiod for 20 days (reference value: 90 mm); format: functional
[21] = system: Colletotrichum truncatum; experiment: Fungicidal activity against Colletotrichum capsici assessed as linear growth at 0.5 ug/ml incubated 16 hr photoperiod for 20 days (reference value: 90 mm); format: functional
[22] = system: Colletotrichum truncatum; experiment: Fungicidal activity against Colletotrichum capsici assessed as linear growth at 0.1 ug/ml incubated 16 hr photoperiod for 20 days (reference value: 90 mm); format: functional
[23] = system: Colletotrichum truncatum; experiment: Fungicidal activity against Colletotrichum capsici infected chilli plant assessed as fruit length at 0.025% applied as spray on day 10 post inoculation and twice every 20 days measured on day 155 post sowing in green house conditions (reference value: 6.8 to 7 cm); format: functional
[24] = system: Colletotrichum truncatum; experiment: Fungicidal activity against Colletotrichum capsici infected chilli plant assessed as fruit length at 0.05% applied as spray on day 10 post inoculation and twice every 20 days measured on day 155 post sowing in green house conditions (reference value: 6.8 to 7 cm); format: functional
[25] = system: Colletotrichum truncatum; experiment: Fungicidal activity against Colletotrichum capsici infected chilli plant assessed as fruit mass measured per pot at 0.025% applied as spray on day 10 post inoculation and twice every 20 days measured on day 155 post sowing in green house conditions (reference value: 85.3 to 94.5 g); format: functional
[26] = system: Capsicum annuum; experiment: Phytotoxicity in Capsicum annuum (pepper) at 0.1% applied as spray; format: organism-based; conditions: in vivo, other
[27] = system: Colletotrichum truncatum; experiment: Fungicidal activity against Colletotrichum capsici infected chilli plant assessed as fruit mass measured per pot at 0.05% applied as spray on day 10 post inoculation and twice every 20 days measured on day 155 post sowing in green house conditions (reference value: 85.3 to 94.5 g); format: functional
[28] = system: Colletotrichum truncatum; experiment: Fungicidal activity against Colletotrichum capsici infected chilli plant assessed as percent disease index at 0.025% applied as spray on day 10 post inoculation and twice every 20 days measured on day 155 post sowing in green house conditions (reference value: 62.5 to 68.6%); format: functional
[29] = system: Colletotrichum truncatum; experiment: Fungicidal activity against Colletotrichum capsici infected chilli plant assessed as percent disease index at 0.05% applied as spray on day 10 post inoculation and twice every 20 days measured on day 155 post sowing in green house conditions (reference value: 62.5 to 68.6%); format: functional
[30] = system: Colletotrichum truncatum; experiment: Fungicidal activity against Colletotrichum capsici infected chilli plant assessed as fruit length measured per plot at 0.025% applied as spray on day 10 post inoculation and twice every 20 days measured on day 155 post sowing in field conditions (reference value: 8 to 8.7 cm); format: functional
[31] = system: Colletotrichum truncatum; experiment: Fungicidal activity against Colletotrichum capsici infected chilli plant assessed as fruit length measured per plot at 0.05% applied as spray on day 10 post inoculation and twice every 20 days measured on day 155 post sowing in field conditions (reference value: 8 to 8.7 cm); format: functional
[32] = system: Colletotrichum truncatum; experiment: Fungicidal activity against Colletotrichum capsici infected chilli plant assessed as fruit yield measured per plot at 0.025% applied as spray on day 10 post inoculation and twice every 20 days measured on day 155 post sowing in field conditions (reference value: 8.25 to 9.3 kg); format: functional
[33] = system: Colletotrichum truncatum; experiment: Fungicidal activity against Colletotrichum capsici infected chilli plant assessed as percent disease index at 0.025% applied as spray on day 10 post inoculation and twice every 20 days measured on day 155 post sowing in field conditions (reference value: 51 to 56.5%); format: functional
[34] = system: Colletotrichum truncatum; experiment: Fungicidal activity against Colletotrichum capsici infected chilli plant assessed as percent disease index at 0.05% applied as spray on day 10 post inoculation and twice every 20 days measured on day 155 post sowing in field conditions (reference value: 51 to 56.5%); format: functional

SMILES | Activity [1] [%] | Activity [2] [%] | EC50 [3] [µg/mL] | Activity [4] [×10⁶ /ml] | Activity [5] [×10⁶ /ml] | Activity [6] [×10⁶ /ml] | Activity [7] [×10⁶ /ml] | Activity [8] [×10⁶ /ml] | CFU [9] | CFU [10] | CFU [11] | inhibition at 0.1 µg/mL [12] [%] | Activity [13] [mg] | Activity [14] [mg] | Activity [15] [mg] | Activity [16] [mg] | Activity [17] [mg] | Activity [18] [mm] | Activity [19] [mm] | Activity [20] [mm] | further results
CC1COC(Cn2cncn2)(c2ccc(Oc3ccc(Cl)cc3)cc2Cl)O1 (stereo not drawn) [DIFENOCONAZOLE] | 15.6 | 12 | 0.15 (≈ 0.369 µM) | 0 | 0 | 0.37 | 1.02 | 3.25 | 0 | 0 | 22.4 | 40 | 0 | 0 | 47 | 243 | 465 | 9 | 18.5 | 39.3 | Activity [21]: 48.5 mm; Activity [22]: 73.5 mm; Activity [23]: 7 cm; Activity [24]: 7.5 cm; Crop_yield [25]: 100.6 g; Activity [26]: Toxic; Crop_yield [27]: 140.5 g; PDI [28]: 34.5%; PDI [29]: 22.2%; Activity [30]: 8.2 cm; Activity [31]: 9.2 cm; Crop_yield [32]: 9.1 kg; PDI [33]: 33%; PDI [34]: 22%
CCCC1COC(Cn2cncn2)(c2ccc(Cl)cc2Cl)O1 (stereo not drawn) [PROPICONAZOLE] | 12 | 9.2 | 0.19 (≈ 0.555 µM) | 0 | 0 | 0 | 0.33 | 2.83 | 0 | 0 | 15.5 | 62 | 0 | 0 | 0 | 129 | 410 | 9 | 9 | 20.5 | Activity [21]: 39.2 mm; Activity [22]: 55.3 mm; Activity [23]: 7.1 cm; Activity [24]: 7.8 cm; Crop_yield [25]: 112.8 g; Activity [26]: Non-toxic; Crop_yield [27]: 130 g; PDI [28]: 33%; PDI [29]: 25.7%; Activity [30]: 8.5 cm; Activity [31]: 9.2 cm; Crop_yield [32]: 9.86 kg; PDI [33]: 30.6%; PDI [34]: 20.5%
